Results taken from US20080194574A1, “Pyrazine Derivatives As Effective Compounds Against Infectious Diseases” (AXXIMA PHARMACEUTICALS AG, priority 2003, published 2008).

These compounds were tested against T1, viral kinase pUL-97 (Human cytomegalovirus, UniProt P16788) (assay: UL97 kinase assay on Immobilon plate). Details: inhibition of UL 97 kinase activity; class by IC50 / % inhibition at 10 μM or 100 μM; read-out: Activity Class [A, B, C].
T1 construct: The pUL-97 gene was cloned into a baculovirus vector; GST (glutathione S-transferase) (N); made in house; host or cells: Sf9 insect cells, baculovirus
T1 sequence (P16788 whole entry): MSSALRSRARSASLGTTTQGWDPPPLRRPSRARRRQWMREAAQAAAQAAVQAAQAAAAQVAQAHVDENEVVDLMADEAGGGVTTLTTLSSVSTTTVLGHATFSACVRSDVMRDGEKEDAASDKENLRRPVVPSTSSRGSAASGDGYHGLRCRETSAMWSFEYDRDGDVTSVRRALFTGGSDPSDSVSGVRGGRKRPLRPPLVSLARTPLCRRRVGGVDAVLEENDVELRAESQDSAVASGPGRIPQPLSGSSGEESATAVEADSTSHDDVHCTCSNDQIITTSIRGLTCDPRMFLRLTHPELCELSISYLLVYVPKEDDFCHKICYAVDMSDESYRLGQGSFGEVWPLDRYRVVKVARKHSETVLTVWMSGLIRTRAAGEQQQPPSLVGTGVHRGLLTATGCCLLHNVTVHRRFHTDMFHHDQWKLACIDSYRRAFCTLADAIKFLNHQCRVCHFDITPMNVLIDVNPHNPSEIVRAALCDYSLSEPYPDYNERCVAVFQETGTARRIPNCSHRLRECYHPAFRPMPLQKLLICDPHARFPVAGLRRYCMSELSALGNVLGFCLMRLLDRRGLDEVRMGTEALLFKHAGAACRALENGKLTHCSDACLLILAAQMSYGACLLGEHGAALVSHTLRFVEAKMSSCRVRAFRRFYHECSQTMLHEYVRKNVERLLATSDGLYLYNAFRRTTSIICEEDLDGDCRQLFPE
Format: biochemical
Procedure, shortened: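 Compound was titrated into a radiometric reaction of Sf9-expressed GST-UL97 kinase, incubated 1 h at 30 °C in Tris-HCl pH 7.5/MnCl2/DTT buffer before EDTA stop. MBP substrate and ATP (3 μM in the added assay buffer) were supplied with γ-[33P]ATP. Labelled product bound to Immobilon filter was washed and counted by scintillation.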

Cc1ccc(N2CCN(c3cncc(-c4csc5ccccc45)n3)CC2)cc1C [compound 317, 6′-Benzo[b]thiophen-3-yl-4-(3,4-dimethyl-phenyl)-3,4,5,6-tetrahydro-2H-[1,2′]bipyrazinyl] and Clc1ccc(N2CCN(c3cncc(-c4cccc5ccccc45)n3)CC2)cc1Cl [compound 287, 4-(3,4-Dichloro-phenyl)-6′-naphthalen-1-yl-3,4,5,6-tetrahydro-2H-[1,2′]bipyrazinyl] fall in the same range of IC50: 10 to 100 µM for the first, 10 to 100 µM for the second.

COc1ccccc1N1CCN(c2cncc(-c3ccccc3C(C)=O)n2)CC1 [compound 240, 1-{2-[4-(2-Methoxy-phenyl)-3,4,5,6-tetrahydro-2H-[1,2′]bipyrazinyl-6′-yl]-phenyl}-ethanone] and Cc1cccc(-c2cncc(N3CCN(c4ccccc4F)CC3)n2)c1C [compound 250, 6′-(2,3-Dimethyl-phenyl)-4-(2-fluoro-phenyl)-3,4,5,6-tetrahydro-2H-[1,2′]bipyrazinyl] fall in the same range of IC50: 10 to 100 µM for the first, 10 to 100 µM for the second.

First: COc1ccc(N2CCN(c3cncc(-c4cccc(C)c4)n3)CC2)cc1OC [compound 223, 4-(3,4-Dimethoxy-phenyl)-6′-m-tolyl-3,4,5,6-tetrahydro-2H-[1,2′]bipyrazinyl]
Second: Cc1ccc(N2CCN(c3cncc(-c4cccc(C)c4)n3)CC2)cc1 [compound 228, 6′-m-Tolyl-4-p-tolyl-3,4,5,6-tetrahydro-2H-[1,2′]bipyrazinyl]
The IC50 of the first is lower: 1 to 10 µM for the first, 10 to 100 µM for the second. The first is the more potent here.

Compared with COc1ccc(-c2cncc(N3CCN(c4ccc(C)cc4)CC3)n2)cc1F [compound 265, 6′-(3-Fluoro-4-methoxy-phenyl)-4-p-tolyl-3,4,5,6-tetrahydro-2H-[1,2′]bipyrazinyl], Cc1ccc(-c2cncc(N3CCN(c4ccccc4)CC3)n2)cc1 [compound 245, 4-Phenyl-6′-p-tolyl-3,4,5,6-tetrahydro-2H-[1,2′]bipyrazinyl] is lower in IC50: 10 to 100 µM for the first, 1 to 10 µM for the second.

COc1cccc(N2CCN(c3cncc(-c4cc5ccccc5o4)n3)CC2)c1 [compound 285, 6′-Benzofuran-2-yl-4-(3-methoxy-phenyl)-3,4,5,6-tetrahydro-2H-[1,2′]bipyrazinyl] and COc1cccc(N2CCN(c3cncc(-c4ccc(CO)cc4)n3)CC2)c1 [compound 323, {4-[4-(3-Methoxy-phenyl)-3,4,5,6-tetrahydro-2H-[1,2′]bipyrazinyl-6′-yl]-phenyl}-methanol] fall in the same range of IC50: 1 to 10 µM for the first, 1 to 10 µM for the second.

COc1ccc(OC)c(-c2cncc(N3CCN(c4ccc(OC)c(OC)c4)CC3)n2)c1 [compound 225, 4-(3,4-Dimethoxy-phenyl)-6′-(2,5-dimethoxy-phenyl)-3,4,5,6-tetrahydro-2H-[1,2′]bipyrazinyl] and COc1ccc(N2CCN(c3cncc(-c4cccc(OC)c4)n3)CC2)cc1 [compound 294, 4-(4-Methoxy-phenyl)-6′-(3-methoxy-phenyl)-3,4,5,6-tetrahydro-2H-[1,2′]bipyrazinyl] fall in the same range of IC50: 10 to 100 µM for the first, 10 to 100 µM for the second.

First: Fc1ccc(N2CCN(c3cncc(-c4ccoc4)n3)CC2)c(F)c1 [compound 201, 4-(2,4-Difluoro-phenyl)-6′-furan-3-yl-3,4,5,6-tetrahydro-2H-[1,2′]bipyrazinyl]
Second: Fc1ccc(N2CCN(c3cncc(-c4ccoc4)n3)CC2)cc1 [compound 270, 4-(4-Fluoro-phenyl)-6′-furan-3-yl-3,4,5,6-tetrahydro-2H-[1,2′]bipyrazinyl]
The IC50 of the first is lower: 1 to 10 µM for the first, 10 to 100 µM for the second. The first is the more potent here.

Clc1ccc(N2CCN(c3cncc(-c4ccc5ccccc5c4)n3)CC2)cc1 [compound 348, 4-(4-Chloro-phenyl)-6′-naphthalen-2-yl-3,4,5,6-tetrahydro-2H-[1,2′]bipyrazinyl] and Cc1ccc(-c2cncc(N3CCN(c4ccncc4)CC3)n2)cc1 [compound 220, 4-Pyridin-4-yl-6′-p-tolyl-3,4,5,6-tetrahydro-2H-[1,2′]bipyrazinyl] fall in the same range of IC50: 1 to 10 µM for the first, 1 to 10 µM for the second.

Compared with Cc1cccc(-c2cncc(N3CCN(c4ccncc4)CC3)n2)c1 [compound 219, 4-Pyridin-4-yl-6′-m-tolyl-3,4,5,6-tetrahydro-2H-[1,2′]bipyrazinyl], COc1ccc(Cl)cc1-c1cncc(N2CCN(c3ccncc3)CC2)n1 [compound 259, 6′-(5-Chloro-2-methoxy-phenyl)-4-pyridin-4-yl-3,4,5,6-tetrahydro-2H-[1,2′]bipyrazinyl] is higher in IC50: 1 to 10 µM for the first, 10 to 100 µM for the second.

CC(C)(C)c1ccc(-c2cncc(N3CCN(c4cnccn4)CC3)n2)cc1 [compound 333, 6-(4-tert-Butyl-phenyl)-2′,3′,5′,6′-tetrahydro-[2,1′;4′,2″]terpyrazine] and CC(C)(C)c1ccc(-c2cncc(N3CCN(c4cccc(C(F)(F)F)c4)CC3)n2)cc1 [compound 253, 6′-(4-tert-Butyl-phenyl)-4-(3-trifluoromethyl-phenyl)-3,4,5,6-tetrahydro-2H-[1,2′]bipyrazinyl] fall in the same range of IC50: 10 to 100 µM for the first, 10 to 100 µM for the second.

Same assay, conditions: inhibition of UL 97 kinase activity; class by IC50 / % inhibition at 10 or 100 μM; read-out: Activity Class [A, B, C]

COc1ccc(-c2cncc(N3CCN(c4cccc(Cl)c4)CC3)n2)cc1OC [compound 100, 4-(3-Chloro-phenyl)-6′-(3,4-dimethoxy-phenyl)-3,4,5,6-tetrahydro-2H-[1,2′]bipyrazinyl] and COc1ccc(-c2cncc(N3CCN(c4ccccc4OC)CC3)n2)cc1OC [compound 107, 6′-(3,4-Dimethoxy-phenyl)-4-(2-methoxy-phenyl)-3,4,5,6-tetrahydro-2H-[1,2′]bipyrazinyl] fall in the same range of IC50: 1 to 10 µM for the first, 1 to 10 µM for the second.

Compared with NC(=O)c1ccccc1-c1cncc(N2CCN(c3ccncc3)CC2)n1 [Comp. 70, 2-(4-Pyridin-4-yl-3,4,5,6-tetrahydro-2H-[1,2′]bipyrazinyl-6′-yl)-benzamide], N#Cc1ccc(-c2cncc(N3CCN(c4ccncc4)CC3)n2)cc1 [compound 131, 4-(4-Pyridin-4-yl-3,4,5,6-tetrahydro-2H-[1,2′]bipyrazinyl-6′-yl)-benzonitrile] is lower in IC50: 10 to 100 µM for the first, 1 to 10 µM for the second. The second is the more potent here.

First: CC(=O)c1cccc(-c2cncc(N3CCN(c4cccc(Cl)c4)CC3)n2)c1 [compound 101, 1-{3-[4-(3-Chloro-phenyl)-3,4,5,6-tetrahydro-2H-[1,2′]bipyrazinyl-6′-yl]-phenyl}-ethanone]
Second: CC(=O)c1ccc(N2CCN(c3cncc(-c4cccc(C)c4)n3)CC2)cc1 [compound 147, 1-[4-(6′-m-Tolyl-2,3,5,6-tetrahydro-[1,2′]bipyrazinyl-4-yl)-phenyl]-ethanone]
The IC50 of the first is lower: 1 to 10 µM for the first, 10 to 100 µM for the second. The first is the more potent here.

CC(=O)c1ccc(N2CCN(c3cncc(-c4cccc5ccccc45)n3)CC2)cc1 [compound 149, 1-[4-(6′-Naphthalen-1-yl-2,3,5,6-tetrahydro-[1,2′]bipyrazinyl-4-yl)-phenyl]-ethanone] and Clc1cccc(N2CCN(c3cncc(-c4ccccc4Oc4ccccc4)n3)CC2)c1 [compound 185, 4-(3-Chloro-phenyl)-6′-(2-phenoxy-phenyl)-3,4,5,6-tetrahydro-2H-[1,2′]bipyrazinyl] fall in the same range of IC50: 10 to 100 µM for the first, 10 to 100 µM for the second.

Fc1ccc(-c2cncc(N3CCN(c4ccccn4)CC3)n2)c(F)c1 [compound 19, 6′-(2,4-Difluoro-phenyl)-4-pyridin-2-yl-3,4,5,6-tetrahydro-2H-[1,2′]bipyrazinyl] and Fc1cccc(-c2cncc(N3CCN(c4ccccn4)CC3)n2)c1 [compound 56, 6′-(3-Fluoro-phenyl)-4-pyridin-2-yl-3,4,5,6-tetrahydro-2H-[1,2′]bipyrazinyl] fall in the same range of IC50: 10 to 100 µM for the first, 10 to 100 µM for the second.

First: Fc1ccc(N2CCN(c3cncc(-c4ccc(F)c(Cl)c4)n3)CC2)c(F)c1 [compound 145, 6′-(3-Chloro-4-fluoro-phenyl)-4-(2,4-difluoro-phenyl)-3,4,5,6-tetrahydro-2H-[1,2′]bipyrazinyl]
Second: CSc1ccc(-c2cncc(N3CCN(c4cccc(Cl)c4)CC3)n2)cc1 [compound 102, 4-(3-Chloro-phenyl)-6′-(4-methylsulfanyl-phenyl)-3,4,5,6-tetrahydro-2H-[1,2′]bipyrazinyl]
The IC50 of the first is higher: 10 to 100 µM for the first, 1 to 10 µM for the second.

Compared with COc1ccccc1N1CCN(c2cncc(-c3ccc(C(N)=O)cc3)n2)CC1 [compound 104, 4-[4-(2-Methoxy-phenyl)-3,4,5,6-tetrahydro-2H-[1,2′]bipyrazinyl-6′-yl]-benzamide], NC(=O)c1ccc(-c2cnc(N)c(N3CCN(c4ccncc4)CC3)n2)cc1 [compound 74, 4-(3′-Amino-4-pyridin-4-yl-3,4,5,6-tetrahydro-2H-[1,2′]bipyrazinyl-6′-yl)-benzamide] is higher in IC50: less than 1 µM for the first, 1 to 10 µM for the second. The first is the more potent here.

Clc1cccc(N2CCN(c3cncc(-c4ccoc4)n3)CC2)c1 [compound 84, 4-(3-Chloro-phenyl)-6′-furan-3-yl-3,4,5,6-tetrahydro-2H-[1,2′]bipyrazinyl] and c1ccc(N2CCN(c3cncc(-c4ccoc4)n3)CC2)cc1 [compound 118, 6′-Furan-3-yl-4-phenyl-3,4,5,6-tetrahydro-2H-[1,2′]bipyrazinyl] fall in the same range of IC50: 1 to 10 µM for the first, 1 to 10 µM for the second.

c1cncc(-c2cncc(N3CCN(c4cccc5[nH]ccc45)CC3)n2)c1 [compound 64, 4-(1H-Indol-4-yl)-6′-pyridin-3-yl-3,4,5,6-tetrahydro-2H-[1,2′]bipyrazinyl] and c1ccc(-c2cncc(N3CCN(c4ccccn4)CC3)n2)cc1 [compound 49] fall in the same range of IC50: 1 to 10 µM for the first, 1 to 10 µM for the second.

Compared with O=C(c1ccco1)N1CCN(c2cncc(-c3cccc(CO)c3)n2)CC1 [compound 58, Furan-2-yl-[6′-(3-hydroxymethyl-phenyl)-2,3,5,6-tetrahydro-[1,2′]bipyrazinyl-4-yl]-methanone], FC(F)(F)c1cccc(N2CCN(c3cncc(-c4cc5ccccc5s4)n3)CC2)c1 [compound 160, 6′-Benzo[b]thiophen-2-yl-4-(3-trifluoromethyl-phenyl)-3,4,5,6-tetrahydro-2H-[1,2′]bipyrazinyl] is lower in IC50: 10 to 100 µM for the first, 1 to 10 µM for the second. The second is the more potent here.

With NC(=O)c1ccc(-c2cncc(NCc3ccccc3)n2)cc1 [compound 28, 4-(6-Benzylamino-pyrazin-2-yl)-benzamide] the IC50 was less than 1 µM.
